The source of these data is patent publication US20240360194A1, “New Peptides as Potent and Selective GIP Receptor Agonists” (Sanofi, priority 2021, published 2024).

Numbered stars: 1 amine (or outer) side, 2 acyl side, 3 side chain; on linkers, the order of the positions; unused ones are H or OH. Square brackets hold non-standard residues; d marks the D form. Side chains are listed from the residue outwards. Peptide text beside a SMILES is read from it. * marks the point of attachment. C18 diacid = O=C(O)CCCCCCCCCCCCCCCCC(=O)*; γGlu = O=C(O)[C@H](CCC(=O)[*:2])N[*:1]; AEEA = NCCOCCOCC(=O)O; Aib = CC(C)(N)C(=O)O

Series [1] concerns the target T1, human GIP receptor (hGIPR) (Homo sapiens, UniProt P48546).
T1 sequence (P48546 22-466): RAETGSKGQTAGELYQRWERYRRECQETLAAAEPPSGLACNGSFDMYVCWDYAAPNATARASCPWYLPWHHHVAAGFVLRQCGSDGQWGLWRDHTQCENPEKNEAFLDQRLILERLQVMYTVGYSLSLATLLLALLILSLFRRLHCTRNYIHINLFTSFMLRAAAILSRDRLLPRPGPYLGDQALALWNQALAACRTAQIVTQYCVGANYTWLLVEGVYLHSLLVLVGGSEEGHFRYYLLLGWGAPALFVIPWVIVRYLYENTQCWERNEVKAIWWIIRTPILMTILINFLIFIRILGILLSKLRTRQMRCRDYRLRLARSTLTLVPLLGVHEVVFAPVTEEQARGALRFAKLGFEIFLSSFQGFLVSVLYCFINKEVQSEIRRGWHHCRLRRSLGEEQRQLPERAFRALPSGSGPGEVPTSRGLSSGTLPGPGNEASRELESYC
Nature of the series: In vitro cellular cAMP assay for GIP receptor efficacy (HEK-293 cell line over-expressing receptor). Type of series: cell-based.

Series [2] in a line: Pharmacokinetic evaluation in mice. Type of series: in vivo, female C57Bl/6 mice. To be noted: in vivo. The protocol: Compounds were administered in a suitable buffer system, e.g. PBS buffer solution at pH7.4 or DPBS solution at concentrations of 0.05, 0.1, 0.5 or 1 mg/ml depending on dose, species and administration volume. Female C57Bl/6 mice were dosed 0.25 mg/kg, 0.5 mg/kg or 1 mg/kg intravenously (i.v.) or subcutaneously (s.c.). The mice were sacrificed, and blood samples were collected after 0.08, 0.25, 0.5, 1, 2, 4, 8, 24, 32, and 48 h post i.v. application and 0.25, 0.5, 1, 2, 4, 8, 24, 32, and 48 h post s.c. application, respectively. Plasma samples were analysed after protein precipitation via liquid chromatography mass spectrometry (LC/MS). PK parameters and half-life were calculated using Phoenix-WinNonlin 8.1 using a non-compartmental model and linear trapezoidal interpolation calculation. Pharmacokinetic profiles were determined as described in Methods.

[3] abbreviates: EC50 hGIPR 0.1% BSA, HEK-293, 0.1% BSA.
Setting [4] is: female, C57Bl/6, mouse, iv, 0.25 mg/kg.
Setting [5] is: female, C57Bl/6, mouse, sc, 0.5 mg/kg.

As a reminder, the EC50 is the concentration that produces a half-maximal response. Turning to `CC[C@H](C)[C@H](NC(=O)[C@H](Cc1ccccc1)NC(=O)[C@H](CCC(=O)O)NC(=O)[C@H](CCC(=O)O)NC(=O)[C@H](CCC(N)=O)NC(=O)[C@H](Cc1c[nH]cn1)NC(=O)[C@@H](NC(=O)[C@H](CCCNC(=N)N)NC(=O)[C@H](CC(=O)O)NC(=O)[C@H](CCCCNC(=O)COCCOCCNC(=O)COCCOCCNC(=O)CC[C@H](NC(=O)CCCCCCCCCCCCCCCCC(=O)O)C(=O)O)NC(=O)C(C)(C)NC(=O)[C@@H](NC(=O)[C@H](CO)NC(=O)[C@H](CC(C)C)NC(=O)[C@H](CC(=O)O)NC(=O)[C@H](CO)NC(=O)[C@@H](NC(=O)[C@H](Cc1ccccc1)NC(=O)[C@@H](NC(=O)CNC(=O)[C@H](CCC(=O)O)NC(=O)C(C)(C)NC(=O)[C@@H](N)Cc1ccc(O)cc1)[C@@H](C)O)[C@@H](C)CC)[C@@H](C)CC)[C@@H](C)CC)C(=O)N[C@@H](CCC(=O)O)C(=O)N[C@@H](Cc1c[nH]c2ccccc12)C(=O)N[C@@H](CC(C)C)C(=O)N[C@@H](CC(C)C)C(=O)N[C@@H](C)C(=O)N[C@@H](CCC(N)=O)C(=O)N[C@@H](CCCNC(=N)N)C(=O)NCC(N)=O` [SEQ ID NO: 4, H2N-Y-Aib-E-G-T-F-I-S-D-L-S-I-Aib-K[{AEEA}2-gGlu-C18OH]-D-R-I-H-Q-E-E-F-I-E-W-L-L-A-Q-R-G-NH2], a half-maximal response in series [1] (setting [3]) (EC50) required 0.0208 nM.

Take `CC[C@H](C)[C@H](NC(=O)[C@H](CCCNC(=N)N)NC(=O)[C@H](CC(=O)O)NC(=O)[C@H](CCCCNC(=O)COCCOCCNC(=O)COCCOCCNC(=O)CC[C@H](NC(=O)CCCCCCCCCCCCCCCCC(=O)O)C(=O)O)NC(=O)C(C)(C)NC(=O)[C@@H](NC(=O)[C@H](CO)NC(=O)[C@H](CC(C)C)NC(=O)[C@H](CC(=O)O)NC(=O)[C@H](CO)NC(=O)[C@@H](NC(=O)[C@H](Cc1ccccc1)NC(=O)[C@@H](NC(=O)CNC(=O)[C@H](CCC(=O)O)NC(=O)C(C)(C)NC(=O)[C@@H](N)Cc1ccc(O)cc1)[C@@H](C)O)[C@@H](C)CC)[C@@H](C)CC)C(=O)N[C@@H](Cc1c[nH]cn1)C(=O)N[C@@H](CCC(N)=O)C(=O)NC(C)(C)C(=O)N[C@@H](CCC(=O)O)C(=O)N[C@@H](Cc1ccccc1)C(=O)N[C@H](C(=O)N[C@@H](CCC(=O)O)C(=O)N[C@@H](Cc1c[nH]c2ccccc12)C(=O)N[C@@H](CC(C)C)C(=O)N[C@@H](CC(C)C)C(=O)N[C@@H](C)C(=O)N[C@@H](CCC(N)=O)C(=O)N[C@@H](CCC(=O)O)C(=O)NCC(N)=O)[C@@H](C)CC` [SEQ ID NO: 12, H2N-Y-Aib-E-G-T-F-I-S-D-L-S-I-Aib-K[{AEEA}2-gGlu-C18OH]-D-R-I-H-Q-Aib-E-F-I-E-W-L-L-A-Q-E-G-NH2]: the EC50 was determined as 0.0267 nM in series [1] (setting [3]) and 0.0011 nM in series [1] (EC50 hGIPR 0.1% HSA, HEK-293, 0.1% HSA).

For `CC[C@H](C)[C@H](NC(=O)[C@H](Cc1ccccc1)NC(=O)[C@H](CCC(=O)O)NC(=O)[C@H](CCC(=O)O)NC(=O)[C@H](CCC(N)=O)NC(=O)[C@H](Cc1c[nH]cn1)NC(=O)[C@@H](NC(=O)[C@H](CCCNC(=N)N)NC(=O)[C@H](CC(=O)O)NC(=O)[C@H](CCCCNC(=O)COCCOCCNC(=O)COCCOCCNC(=O)CC[C@H](NC(=O)CCCCCCCCCCCCCCCCC(=O)O)C(=O)O)NC(=O)C(C)(C)NC(=O)[C@@H](NC(=O)[C@H](CO)NC(=O)[C@H](CC(C)C)NC(=O)[C@H](CC(=O)O)NC(=O)[C@H](CO)NC(=O)[C@@H](NC(=O)[C@@](C)(CC)NC(=O)[C@@H](NC(=O)CNC(=O)[C@H](CCC(=O)O)NC(=O)C(C)(C)NC(=O)[C@@H](N)Cc1ccc(O)cc1)[C@@H](C)O)[C@@H](C)CC)[C@@H](C)CC)[C@@H](C)CC)C(=O)N[C@@H](CCC(=O)O)C(=O)N[C@@H](Cc1c[nH]c2ccccc12)C(=O)N[C@@H](CC(C)C)C(=O)N[C@@H](CC(C)C)C(=O)N[C@@H](C)C(=O)N[C@@H](CCC(N)=O)C(=O)N[C@@H](CCCNC(=N)N)C(=O)NCC(N)=O` [SEQ ID NO: 15, H2N-Y-Aib-E-G-T-Iva-I-S-D-L-S-I-Aib-K[{AEEA}2-gGlu-C18OH]-D-R-I-H-Q-E-E-F-I-E-W-L-L-A-Q-R-G-NH2], the midpoint of the response in series [1] (setting [3]), the EC50, lay at 0.0216 nM.

In general, AUC(0-t) refers to the area under the concentration-time curve up to a stated or last time point. For orientation: Cmax means the peak of the concentration-time curve. Broadly, the clearance is a measure of how efficiently the substance is removed, as volume per time. Low readings indicate inefficient removal, high ones efficient removal. Usually half-life stands for the time in which the quantity being followed falls by half. `CC[C@H](C)[C@H](NC(=O)[C@H](CCCNC(=N)N)NC(=O)[C@H](CC(=O)O)NC(=O)[C@H](CCCCNC(=O)COCCOCCNC(=O)COCCOCCNC(=O)CC[C@H](NC(=O)CCCCCCCCCCCCCCCCC(=O)O)C(=O)O)NC(=O)C(C)(C)NC(=O)[C@@H](NC(=O)[C@H](CO)NC(=O)[C@H](CC(C)C)NC(=O)[C@H](CC(=O)O)NC(=O)[C@H](CO)NC(=O)[C@@H](NC(=O)[C@@](C)(CC)NC(=O)[C@@H](NC(=O)CNC(=O)[C@H](CCC(=O)O)NC(=O)C(C)(C)NC(=O)[C@@H](N)Cc1ccc(O)cc1)[C@@H](C)O)[C@@H](C)CC)[C@@H](C)CC)C(=O)N[C@@H](Cc1c[nH]cn1)C(=O)N[C@@H](CCC(N)=O)C(=O)NC(C)(C)C(=O)N[C@@H](CCC(=O)O)C(=O)N[C@@H](Cc1ccccc1)C(=O)N[C@H](C(=O)N[C@@H](CCC(=O)O)C(=O)N[C@@H](Cc1c[nH]c2ccccc12)C(=O)N[C@@H](CC(C)C)C(=O)N[C@@H](CC(C)C)C(=O)N[C@@H](C)C(=O)N[C@@H](CCC(N)=O)C(=O)N[C@@H](CCCNC(=N)N)C(=O)NCC(N)=O)[C@@H](C)CC` [SEQ ID NO: 16, H2N-Y-Aib-E-G-T-Iva-I-S-D-L-S-I-Aib-K[{AEEA}2-gGlu-C18OH]-D-R-I-H-Q-Aib-E-F-I-E-W-L-L-A-Q-R-G-NH2] showed an EC50 in series [1] (setting [3]) of 0.0243 nM. In series [2] (setting [4]), the area under the curve AUC(0-t) was 27300 ng·h/mL, the Cmax came to 5040 ng/mL, the clearance is 0.151 mL/min/kg and the half-life was 7.33 h. In series [2] (setting [5]), the AUC(0-t) came out at 82500 ng·h/mL, the concentration peaked (Cmax) at 4590 ng/mL and the half-life was 5.69 h. In addition, the F in series [2] (mouse, sc, 0.5 mg/kg) is recorded as 150%.

In series [2] (setting [4]), `CC[C@H](C)[C@H](NC(=O)[C@H](CCC(=O)O)NC(=O)[C@H](CCC(=O)O)NC(=O)[C@H](CCCCNC(=O)COCCOCCNC(=O)COCCOCCNC(=O)CC[C@H](NC(=O)CCCCCCCCCCCCCCCCC(=O)O)C(=O)O)NC(=O)C(C)(C)NC(=O)[C@@H](NC(=O)[C@H](CO)NC(=O)[C@H](CC(C)C)NC(=O)[C@H](CC(=O)O)NC(=O)[C@H](CO)NC(=O)[C@@H](NC(=O)[C@H](Cc1ccccc1)NC(=O)[C@@H](NC(=O)CNC(=O)[C@H](CCC(=O)O)NC(=O)C(C)(C)NC(=O)[C@@H](N)Cc1ccc(O)cc1)[C@@H](C)O)[C@@H](C)CC)[C@@H](C)CC)C(=O)N[C@@H](Cc1c[nH]cn1)C(=O)N[C@@H](CCC(N)=O)C(=O)NC(C)(C)C(=O)N[C@@H](CCC(=O)O)C(=O)N[C@@H](Cc1ccccc1)C(=O)N[C@H](C(=O)N[C@@H](CCC(=O)O)C(=O)N[C@@H](Cc1c[nH]c2ccccc12)C(=O)N[C@@H](CC(C)C)C(=O)N[C@@H](CC(C)C)C(=O)N[C@@H](C)C(=O)N[C@@H](CCC(N)=O)C(=O)NCC(=O)N1CCC[C@H]1C(=O)N[C@@H](CO)C(=O)N[C@@H](CO)C(=O)NCC(=O)N[C@@H](C)C(=O)N1CCC[C@H]1C(=O)N1CCC[C@H]1C(=O)N1CCC[C@H]1C(=O)N[C@@H](CO)C(N)=O)[C@@H](C)CC` [SEQ ID NO: 19, H2N-Y-Aib-E-G-T-F-I-S-D-L-S-I-Aib-K[{AEEA}2-gGlu-C18OH]-E-E-I-H-Q-Aib-E-F-I-E-W-L-L-A-Q-G-P-S-S-G-A-P-P-P-S-NH2] (H-Y[Aib]EGTFISDLSI[Aib]K([AEEA-AEEA-γGlu-C18 diacid])EEIHQ[Aib]EFIEWLLAQGPSSGAPPPS-NH2) showed an AUC(0-t) of 20800 ng·h/mL, a Cmax of 3750 ng/mL, a clearance of 0.197 mL/min/kg and a half-life of 8.68 h. In series [2] (setting [5]), this compound gave an AUC(0-t) of 41100 ng·h/mL, a Cmax of 2420 ng/mL, an F of 101% and a half-life of 10.3 h.
